According to PMC8022858, “Discovery of bone morphogenetic protein 7-derived peptide sequences that attenuate the human osteoarthritic chondrocyte phenotype” (Molecular Therapy. Methods & Clinical Development, 2021):

Test system: human OA infra-patellar fat pad (IPFP) explants
Experiment: PGE2 levels in culture supernatant of IPFP explants
Format: cell-based
Details: n = 5 donors, 24 h, relative to control (Figure 6E)
Method: Figure 6 Peptide p[63−82] activity on OA knee joint tissues Human OA knee joint tissues were cultured for 24 h in the presence of BMP7, peptide p[63−82], or the scrambled version of peptide p[63−82] and compared to control conditions. (A) Cartilage tissues (n = 7 individual donors) were exposed to shown conditions and analyzed for COL2A1, COL10A1, and COX-2 mRNA expression by quantitative real-time PCR (normalized for 28S rRNA expression and relative to control conditions). (B) GAG release in medium from cartilage tissues (n = 5 individual donors) was determined, and data were calculated relative to the control condition. (C) PGE2 levels in culture supernatant from synovium (n = 5 donors). (D) PGE2 levels in culture supernatant from cartilage tissues from (B) (n = 5 donors). (E) PGE2 levels in culture supernatant from IPFP (n = 5 donors). (F) PGE2 levels in culture supernatant from the meniscus. Synovium, IPFP, and meniscus tissues were from the same 5 donors as the cartilage tissues in (B) and (C). PGE2 levels in conditions were calculated relative to controls for each donor. In graphs, error bars represent mean ± SEM; data are presented relative to the control condition for each time point. Statistical differences (unpaired two-tailed Student’s t test) were calculated to control condition: ∗p < 0.05, ∗∗p < 0.01, and ∗∗∗p < 0.001. […]

| Substance | PGE2 levels from IPFP explants |
| --- | --- |
| H-AAYYSEGESAFPLNSYMNAT-OH [p[63−82]] | reduced |
| BMP7: full-length recombinant bone morphogenetic protein 7 (R&D Systems), used at 1 nM | reduced |
